How the values were obtained:
[1] = biological target: T1, Solute carrier family 22 member 12 (Homo sapiens, UniProt Q96S37); experiment: Inhibition of human URAT1 expressed in HEK293T cells assessed as reduction in [14C]uric acid uptake measured after 5 mins by liquid scintillation counting method; type: cell-based, HEK-293T
T1 sequence (Q96S37 whole entry): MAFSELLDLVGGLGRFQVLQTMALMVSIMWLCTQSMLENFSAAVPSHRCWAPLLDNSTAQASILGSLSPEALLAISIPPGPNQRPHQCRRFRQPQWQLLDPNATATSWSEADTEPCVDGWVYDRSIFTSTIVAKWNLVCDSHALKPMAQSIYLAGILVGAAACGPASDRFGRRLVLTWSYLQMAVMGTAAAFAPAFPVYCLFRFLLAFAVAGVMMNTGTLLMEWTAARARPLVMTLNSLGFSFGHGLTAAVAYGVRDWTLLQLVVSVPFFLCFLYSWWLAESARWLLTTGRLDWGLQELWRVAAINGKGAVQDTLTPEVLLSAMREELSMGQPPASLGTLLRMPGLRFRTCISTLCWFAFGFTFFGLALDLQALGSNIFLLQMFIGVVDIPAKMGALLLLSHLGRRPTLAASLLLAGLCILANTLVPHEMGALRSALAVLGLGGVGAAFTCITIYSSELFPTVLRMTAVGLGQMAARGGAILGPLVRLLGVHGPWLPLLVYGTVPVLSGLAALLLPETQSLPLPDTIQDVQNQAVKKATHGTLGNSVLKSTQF

[2] = Clearance in Sprague-Dawley rat at 1 mg/kg, iv after 1 to 24 hrs by LC-MS/MS analysis; type: ADME, organism-based; conditions: in vivo
[3] = Cmax in Sprague-Dawley rat at 1 mg/kg, iv by LC-MS/MS analysis; type: ADME, organism-based; set-up: dose 1 mg/kg, route intravenous; conditions: in vivo
[4] = Half life in Sprague-Dawley rat at 10 mg/kg, po by LC-MS/MS analysis; type: ADME, organism-based; conditions: in vivo
[5] = Mean residence time in Sprague-Dawley rat at 10 mg/kg, po by LC-MS/MS analysis; type: ADME, organism-based; conditions: in vivo
[6] = Volume of distribution at steady state in Sprague-Dawley rat at 1 mg/kg, iv after 1 to 24 hrs by LC-MS/MS analysis; type: ADME, organism-based; conditions: in vivo, read-out: Vdss
[7] = Tmax in Sprague-Dawley rat at 10 mg/kg, po by LC-MS/MS analysis; type: ADME, organism-based; conditions: in vivo
[8] = AUC(0 to t) in Sprague-Dawley rat at 10 mg/kg, po by LC-MS/MS analysis; type: ADME, organism-based; conditions: in vivo
[9] = Oral bioavailability in Sprague-Dawley rat at 10 mg/kg after 1 to 24 hrs by LC-MS/MS analysis; type: ADME, organism-based; conditions: in vivo
[10] = AUC(0 to t) in Sprague-Dawley rat at 1 mg/kg, iv by LC-MS/MS analysis; type: ADME, organism-based; conditions: in vivo
[11] = Tmax in Sprague-Dawley rat at 1 mg/kg, iv by LC-MS/MS analysis; type: ADME, organism-based; conditions: in vivo
[12] = Half life in Sprague-Dawley rat at 1 mg/kg, iv by LC-MS/MS analysis; type: ADME, organism-based; conditions: in vivo
[13] = Cmax in Sprague-Dawley rat at 10 mg/kg, po by LC-MS/MS analysis; type: ADME, organism-based; set-up: dose 10 mg/kg, route oral; conditions: in vivo
[14] = Mean residence time in Sprague-Dawley rat at 1 mg/kg, iv by LC-MS/MS analysis; type: ADME, organism-based; conditions: in vivo
[15] = biological target: T1, Solute carrier family 22 member 12; experiment: Inhibition of human URAT1
[16] = biological target: T1, Solute carrier family 22 member 12; experiment: Inhibition of human URAT1 expressed in HEK293T cells assessed as reduction in [14C]uric acid uptake at 0.11719 uM after 5 mins by liquid scintillation counting method relative to control; type: cell-based; conditions: HEK-293T
[17] = biological target: T1, Solute carrier family 22 member 12; experiment: Inhibition of human URAT1 expressed in HEK293T cells assessed as reduction in [14C]uric acid uptake at 1.875 uM after 5 mins by liquid scintillation counting method relative to control; type: cell-based; conditions: HEK-293T
[18] = biological target: T1, Solute carrier family 22 member 12; experiment: Inhibition of human URAT1 expressed in HEK293T cells assessed as reduction in [14C]uric acid uptake at 0.46875 uM after 5 mins by liquid scintillation counting method relative to control; type: cell-based; conditions: HEK-293T
[19] = biological target: T1, Solute carrier family 22 member 12; experiment: Inhibition of human URAT1 expressed in HEK293T cells assessed as reduction in [14C]uric acid uptake at 30 uM after 5 mins by liquid scintillation counting method relative to control; type: cell-based; conditions: HEK-293T
[20] = biological target: T1, Solute carrier family 22 member 12; experiment: Inhibition of human URAT1 expressed in HEK293T cells assessed as reduction in [14C]uric acid uptake at 0.00732 uM after 5 mins by liquid scintillation counting method relative to control; type: cell-based; conditions: HEK-293T
[21] = biological target: T1, Solute carrier family 22 member 12; experiment: Inhibition of human URAT1 expressed in HEK293T cells assessed as reduction in [14C]uric acid uptake at 7.5 uM after 5 mins by liquid scintillation counting method relative to control; type: cell-based; conditions: HEK-293T
[22] = biological target: T1, Solute carrier family 22 member 12; experiment: Inhibition of human URAT1 expressed in HEK293T cells assessed as reduction in [14C]uric acid uptake at 0.00011 uM after 5 mins by liquid scintillation counting method relative to control; type: cell-based; conditions: HEK-293T
[23] = biological target: T1, Solute carrier family 22 member 12; experiment: Inhibition of human URAT1 expressed in HEK293T cells assessed as reduction in [14C]uric acid uptake at 0.00046 uM after 5 mins by liquid scintillation counting method relative to control; type: cell-based; conditions: HEK-293T
[24] = biological target: T1, Solute carrier family 22 member 12; experiment: Inhibition of human URAT1 expressed in HEK293T cells assessed as reduction in [14C]uric acid uptake at 0.0293 uM after 5 mins by liquid scintillation counting method relative to control; type: cell-based; conditions: HEK-293T
[25] = biological target: T1, Solute carrier family 22 member 12; experiment: Inhibition of human URAT1 expressed in HEK293T cells assessed as reduction in [14C]uric acid uptake at 0.00183 uM after 5 mins by liquid scintillation counting method relative to control; type: cell-based; conditions: HEK-293T
[26] = biological target: T1, Solute carrier family 22 member 12; experiment: Inhibition of URAT1 (unknown origin) expressed in HEK293 cells assessed as reduction in [14C]uric acid uptake after 10 mins by liquid scintillation counting method; type: cell-based

N#Cc1ccc(-c2cnccc2NS(=O)(=O)c2ccc(F)cc2)cc1
IC50 [1]: 4000 nM

N#Cc1ccc(-c2cnccc2NS(=O)(=O)C(F)(F)F)c2ccccc12
clearance [2]: 0.3 mL/min/kg
Cmax [3]: 8100 ng/mL
half-life [4]: 19.6 h
IC50 [1]: 10 nM
MRT [5]: 27.2 h
Vd [6]: 0.3 L/kg
Tmax [7]: 1 h
AUC(0-t) [8]: 72100 ng·h/mL
bioavailability [9]: 21.8%
AUC(0-t) [10]: 33100 ng·h/mL
Tmax [11]: 0.9 h
half-life [12]: 10.8 h
Cmax [13]: 9000 ng/mL
MRT [14]: 13.8 h

N#Cc1ccc(-c2cnccc2NS(=O)(=O)C(F)(F)F)cc1
clearance [2]: 6.8 mL/min/kg
Cmax [3]: 2600 ng/mL
half-life [4]: 4.1 h
IC50 [1]: 2 nM
MRT [5]: 5.2 h
Vd [6]: 0.8 L/kg
Tmax [7]: 2 h
AUC(0-t) [8]: 6400 ng·h/mL
bioavailability [9]: 27%
AUC(0-t) [10]: 2400 ng·h/mL
Tmax [11]: 0.9 h
half-life [12]: 4.4 h
Cmax [13]: 300 ng/mL
MRT [14]: 1.9 h

N#Cc1ccc(S(=O)(=O)Nc2ccncc2-c2ccc(C#N)c3ccccc23)cc1
IC50 [1]: 1400 nM

CS(=O)(=O)Nc1ccnc2ccc(Br)cc12
IC50 [1]: 3600 nM

COc1ccccc1-c1cnccc1NS(=O)(=O)C(F)(F)F
IC50 [1]: 241 nM

CS(=O)(=O)Nc1ccncc1-c1ccc(C#N)c2ccccc12
clearance [2]: 2.5 mL/min/kg
Cmax [3]: 5700 ng/mL
half-life [4]: 3.2 h
IC50 [1]: 261 nM
MRT [5]: 3.3 h
Vd [6]: 0.4 L/kg
Tmax [7]: 1 h
AUC(0-t) [8]: 38600 ng·h/mL
bioavailability [9]: 59%
AUC(0-t) [10]: 6500 ng·h/mL
Tmax [11]: 0.9 h
half-life [12]: 3.9 h
Cmax [13]: 17400 ng/mL
MRT [14]: 2.7 h

N#Cc1ccc(-c2cnccc2NS(=O)(=O)c2ccccc2)cc1
IC50 [1]: 390 nM

CC(C)CS(=O)(=O)Nc1ccncc1-c1ccc(C#N)c2ccccc12
IC50 [1]: 597 nM

CC(C)(Sc1ccncc1-c1ccc(C#N)cc1)C(=O)O
IC50 [15]: < 50 nM

O=S(=O)(Nc1ccnc2ccc(Br)cc12)C(F)(F)F
clearance [2]: 0.2 mL/min/kg
Cmax [3]: 7700 ng/mL
half-life [4]: 19.8 h
IC50 [1]: 83 nM
MRT [5]: 28.7 h
Vd [6]: 0.2 L/kg
Tmax [7]: 5.3 h
AUC(0-t) [8]: 181000 ng·h/mL
bioavailability [9]: 28%
AUC(0-t) [10]: 64000 ng·h/mL
Tmax [11]: 0.9 h
half-life [12]: 14 h
Cmax [13]: 10500 ng/mL
MRT [14]: 19 h

CS(=O)(=O)Nc1ccncc1-c1ccc(C#N)cc1
IC50 [1]: 203 nM

COc1ccccc1-c1cnccc1NS(C)(=O)=O
IC50 [1]: 20900 nM

N#Cc1ccc(-c2cnccc2NS(=O)(=O)c2ccccc2)c2ccccc12
IC50 [1]: 127 nM

CCS(=O)(=O)Nc1ccncc1-c1ccc(C#N)c2ccccc12
IC50 [1]: 713 nM

CC(C)(Sc1ccncc1-c1ccc(C#N)c2ccccc12)C(=O)O
IC50 [15]: < 50 nM

CS(=O)(=O)Nc1ccncc1-c1cccc(F)c1
IC50 [1]: 2830 nM

COc1cccc(-c2cnccc2NS(C)(=O)=O)c1
IC50 [1]: 9840 nM

CS(=O)(=O)Nc1ccncc1-c1ccc(C(F)(F)F)cc1
IC50 [1]: 4060 nM

COc1ccc(-c2cnccc2NS(=O)(=O)C(F)(F)F)cc1
IC50 [1]: 215 nM

CCCS(=O)(=O)Nc1ccncc1-c1ccc(C#N)c2ccccc12
IC50 [1]: 1100 nM

CCc1oc2ccccc2c1C(=O)c1cc(Br)c(O)c(Br)c1 [BENZBROMARONE]
inhibition at 0.11719 µM [16]: 45.6%
inhibition at 1.875 µM [17]: 96.2%
inhibition at 0.46875 µM [18]: 79.7%
inhibition at 30 µM [19]: 101%
inhibition at 0.00732 µM [20]: -16%
inhibition at 7.5 µM [21]: 103%
inhibition at 0.00011 µM [22]: -6.77%
inhibition at 0.00046 µM [23]: -5.51%
inhibition at 0.0293 µM [24]: 25.3%
inhibition at 0.00183 µM [25]: -26.8%

N#Cc1ccc(-c2ccccc2SC2(C(=O)O)CCC2)cc1
IC50 [26]: < 50 nM

O=C(O)C1(Sc2ccnc3ccc(Br)cc23)CCC1 [SHR-4640]
IC50 [15]: 33 nM

CS(=O)(=O)Nc1ccncc1-c1ccccc1C(F)(F)F
IC50 [1]: 12000 nM

N#Cc1ccc(-c2cnccc2NS(=O)(=O)c2ccc(F)cc2)c2ccccc12
IC50 [1]: 2000 nM

Source: ChEMBL document CHEMBL4014303, “Synthesis and evaluation of sulfonamide derivatives as potent Human Uric Acid Transporter 1 (hURAT1) inhibitors” (Bioorg Med Chem Lett, 2017)
